Laboratory results reported in the supplement of paper PMC5908809.

Experiments:
NK-YS (IL-2 2.5 ng/mL) [1] = experiment: drug sensitivity score (DSS) (DSS units); higher = more sensitive; extreme values may be limits of the assay; conditions: 72 h
SNK-6 (IL-2 2.5 ng/mL) [2] = experiment: as above; conditions: 72 h
[3] = tested on: normal primary NK cells, pool 1 (3 donors) (IL-2 2.5 ng/mL); experiment: as above; conditions: 72 h
KAI3 (IL-2 2.5 ng/mL) [4] = experiment: as above; conditions: 72 h
[5] = tested on: normal primary NK cells, pool 2 (3 donors) (IL-2 2.5 ng/mL); experiment: as above; conditions: 72 h
[6] = tested on: normal primary NK cells, pool 3 (3 donors) (IL-2 2.5 ng/mL); experiment: as above; conditions: 72 h
KHYG-1 (IL-2 2.5 ng/mL) [7] = experiment: as above; conditions: 72 h
[8] = tested on: normal primary NK cells, pool 1 (3 donors), resting (IL-2 0 ng/mL); experiment: as above; conditions: 72 h
DERL-7 (IL-2 2.5 ng/mL) [9] = experiment: as above; conditions: 72 h
IMC-1 (IL-2 20 ng/mL) [10] = experiment: as above; conditions: 72 h
YT (IL-2 2.5 ng/mL) [11] = experiment: as above; conditions: 72 h
NKL (IL-2 2.5 ng/mL) [12] = experiment: as above; conditions: 72 h
NK-92 (IL-2 2.5 ng/mL) [13] = experiment: as above; conditions: 72 h
NK-YS (IL-2 2.5 ng/mL) [14] = experiment: percent inhibition of viability; higher = more inhibition; conditions: 72 h
SNK-6 (IL-2 2.5 ng/mL) [15] = experiment: as above; conditions: 72 h
[16] = tested on: normal primary NK cells, pool 1 (3 donors) (IL-2 2.5 ng/mL); experiment: as above; conditions: 72 h
KAI3 (IL-2 2.5 ng/mL) [17] = experiment: as above; conditions: 72 h
[18] = tested on: normal primary NK cells, pool 2 (3 donors) (IL-2 2.5 ng/mL); experiment: as above; conditions: 72 h
[19] = tested on: normal primary NK cells, pool 3 (3 donors) (IL-2 2.5 ng/mL); experiment: as above; conditions: 72 h
KHYG-1 (IL-2 2.5 ng/mL) [20] = experiment: as above; conditions: 72 h
[21] = tested on: normal primary NK cells, pool 1 (3 donors), resting (IL-2 0 ng/mL); experiment: as above; conditions: 72 h
DERL-7 (IL-2 2.5 ng/mL) [22] = experiment: as above; conditions: 72 h
IMC-1 (IL-2 20 ng/mL) [23] = experiment: as above; conditions: 72 h
YT (IL-2 2.5 ng/mL) [24] = experiment: as above; conditions: 72 h
NKL (IL-2 2.5 ng/mL) [25] = experiment: as above; conditions: 72 h
NK-92 (IL-2 2.5 ng/mL) [26] = experiment: as above; conditions: 72 h
[27] = tested on: normal NK cells expanded with K562-aAPC; experiment: as above; conditions: 72 h, IL-2 2.5 ng/mL
Procedure: (§1)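 Drug sensitivity and resistance testing on K562-aAPC-expanded normal NK cells: 5 concentrations (10-fold steps over a 10,000-fold range), 72 h at 37 °C, viability by CellTiter-Glo normalised to DMSO and benzethonium chloride controls; DSS from the fitted curve.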

[28] = tested on: normal NK cells expanded with K562-aAPC; experiment: drug sensitivity score (DSS) (DSS units); higher = more sensitive; extreme values may be limits of the assay; conditions: 72 h; IL-2 2.5 ng/mL
Procedure: as §1

CNCc1ccc(-c2[nH]c3cc(F)cc4c3c2CCNC4=O)cc1 [Rucaparib] (max concentration tested 10000 nM)
Conditions | drug sensitivity score
DERL-7 (IL-2 2.5 ng/mL) [9] | 1.29
IMC-1 (IL-2 20 ng/mL) [10] | 1.47
KAI3 (IL-2 2.5 ng/mL) [4] | 4.23
KHYG-1 (IL-2 2.5 ng/mL) [7] | 1.18
NK-92 (IL-2 2.5 ng/mL) [13] | 3.52
NK-YS (IL-2 2.5 ng/mL) [1] | 6.07
NKL (IL-2 2.5 ng/mL) [12] | 13.3
SNK-6 (IL-2 2.5 ng/mL) [2] | 1.5
YT (IL-2 2.5 ng/mL) [11] | 0.68
[3] | 0
[5] | 0
[6] | 0
[8] | 0
[28] | 1.54

percent inhibition of viability [%]
Conditions | 1 nM | 10 nM | 100 nM | 1000 nM | 10000 nM
DERL-7 (IL-2 2.5 ng/mL) [22] | -9.87 | 10 | 4.56 | 3.4 | 22.7
IMC-1 (IL-2 20 ng/mL) [23] | -6.39 | -3.67 | -0.13 | 1.12 | 30.4
KAI3 (IL-2 2.5 ng/mL) [17] | -1.49 | 2.99 | 3.22 | 18.5 | 43.5
KHYG-1 (IL-2 2.5 ng/mL) [20] | -3.58 | -2.03 | -1.44 | 4.57 | 20
NK-92 (IL-2 2.5 ng/mL) [26] | -18.8 | 8.56 | -9.2 | 6.16 | 47.7
NK-YS (IL-2 2.5 ng/mL) [14] | -2.32 | -3.72 | 1.59 | 11.2 | 75.7
NKL (IL-2 2.5 ng/mL) [25] | -15.5 | 5.49 | 23.9 | 53.6 | 87.9
SNK-6 (IL-2 2.5 ng/mL) [15] | 7.29 | -11.5 | -2.3 | 1 | 31
YT (IL-2 2.5 ng/mL) [24] | -4.68 | -5.01 | -3.45 | 2.32 | 17.4
[16] | 4.59 | 15.4 | 12.4 | 3.34 | 18.9
[18] | -2.83 | 5.08 | -1.77 | -1.32 | 4.05
[19] | -0.27 | 12.1 | 3.56 | -0.98 | 7.3
[21] | 3.79 | 19.2 | 4.4 | 7.5 | -5.08
[27] | -4.01 | -1.44 | -1.55 | 6.35 | 21.8
